The record followed here is patent US8288364B2, “Botanically derived composition and a process thereof” (Indus Biotech Private Limited, priority 2008, dated 2012).

Experiment [1] in a line: Body composition (anabolic/androgenic activity) in castrated immature rats, 4 weeks of treatment. In kind it is in vivo, Wistar rats. The text has this: Immature male Wistar rats weighing about 55 gm (±5 gm) were selected for the study. These rats were anesthetized by anesthetic ether and castrated. After 4 weeks of treatment, animals were sacrificed and the seminal vesicles, the ventral prostate, and the muscle levator ani carefully dissected and weighed. Body weight of the animals was registered at the beginning and at the end of the experiment. Increase in weight of seminal vesicles and ventral prostate indicates androgenic activity, whereas increase in weight of levator ani muscles was considered to indicate anabolic activity.

The nature of experiment [2]: Body weight in early stages of diabetes induced with alloxan. In kind it is in vivo, Wistar rats. The conditions noted are these: alloxan-diabetic rats, test compound 60 mg/kg, pioglitazone 5 mg/kg; for Body weight, 0 day: day 0; for % Change in Body weight: day 0 to day 30, numbers are printed as INCREASE; for Body weight, 15 day: day 15; for Body weight, 30 day: day 30. The protocol:
(§1) Male Wistar rats were injected with alloxan monohydrate (160 mg/kg i.p.) to induce diabetes. After 48 hours of injection blood glucose levels were determined using glucose estimation kits. Animals with blood glucose levels above 300 mg/dl were selected and divided into four groups of 6 rats in each group.
(§2) The animals were given respective drug solutions in stipulated dose, for 30 days. On the 0th, 15th and 30th day of treatment, the blood sugar levels and body weights were analyzed.
There was a significant decrease in body weight in diabetic group as compared to non diabetic group. In the test compound treated group the body weight on 0 day was 185.16 & 240.83 on 30 day. […] There was a 29% increase in weight in the animals treated with the test compound that was an excellent result when compared to the 9% decrease in body weight of the untreated diabetic animals. The below table provides the percentage change in body weight of groups treated with respective treatments.

Experiment [3] concerns Diabetes Induced with Alloxan. In words: Blood sugar levels in early stages of diabetes induced with alloxan. The conditions noted are these: alloxan-diabetic rats; for Blood sugar level, 0 day: day 0; for Blood sugar level, 0 day / Blood sugar level, 15 day / Blood sugar level, 30 day: doses: test compound 60 mg/kg, fenugreek seed powder 2 g/kg, crude alcohol extract 1 g/kg, pioglitazone 5 mg/kg; for Change in BSL (%): day 0 to day 30, numbers are printed as DECREASE, doses as in the row (60 mg/kg, 2 g/kg, 1 g/kg, 5 mg/kg); for Blood sugar level, 15 day: day 15 of treatment; for Blood sugar level, 30 day: day 30 of treatment. In kind it is in vivo, Wistar rats. The method, then: as §1
Group 1: Non-Diabetic Control
Group 2: Diabetes Control
Group 3: Test Compound (60 mg/kg)
Group 4: Pioglitazone (Standard Drug) (5 mg/kg)
as §2
Serum was obtained by centrifuging the blood obtained by retero-orbital blood withdrawal at 7000 rpm at 4° C. for 15 min. The serum obtained was collected for Blood sugar level determinations. The below table provides data on blood glucose levels of various groups.

A further experiment concerns 3T3-L1 cells. The experiment can be described thus: Deoxy-D-Glucose, 2-(1-14C) uptake in 3T3-L1 cells (insulin-like action). In kind it is cell-based. The protocol: This example studies the time and dose dependant uptake of Deoxy-D-Glucose, 2-(1-^14C) uptake in 3T3-L1 cells treated with the test compound. 3T3-L1 cells were cultured (DMEM+FBS) in a 24 well plate and were treated with a 5 μg/ml and a 50 μg/ml dose of the test compound for 10 or 30 min. Cells treated with 100 nM insulin was used as a positive control. Radioactivity (cpm) was measured with TopCount (Packard).

Experiment [4] in a line: Double-blind, placebo-controlled clinical study: body composition (body fat) by bioelectric impedance and hydrostatic weighing. The class given is in vivo, human. To be noted: volunteers, 500 mg supplementation, 8 weeks, resistance training 4 times/week. The protocol:
(§3) Subsequently, a double-blind, placebo-controlled study in 49 pre-trained volunteers was conducted to assess the safety and efficacy of the test compound. This 2 month study was conducted with supplementation of 500 mg of the test compound and the volunteers were on resistance training 4 times/week. During this study the effect of the test compound on body composition (fat content) and strength were evaluated.
Body density was analyzed by bioelectric impedance and hydrostatic weighing. Based on these parameters fat free mass was calculated. From the FIG. 5 it is concluded that during the study period of 8 weeks, the test product reduced the body fat by 12%. This is a significant reduction.

For the next experiment, the system named is serum testosterone. In words: Serum testosterone by radioimmunoassay in castrated immature rats after four weeks of treatment. The class given is in vivo, Wistar rats. The conditions noted are these: daily treatment, 35 mg/kg p.o., RIA. The method, then: In addition, to rule out any possibility of androgenic activity in the increase in body weight and muscle mass, the serum testosterone levels were measured.
Immature male Wistar rats weighing about 55 gm (±5gm) were selected for the study. These rats were anesthetized by anesthetic ether and castrated. After four weeks of treatment, the blood was withdrawn from the rats by retro orbital puncture method and analyzed for serum testosterone, which was measured with the help of radioimmunoassay (RIA) kit.

Experiment [5] can be described thus: Levator ani muscle mass in alloxan-diabetic animals. In kind it is in vivo, Wistar rats. To be noted: alloxan-diabetic animals on treatment, FIG. 8. The text has this: A subsequent study was done to evaluate the impact of the increase in weight on the muscle content of the animals.
The levitor ani muscles of these animals were checked for the drugs effect on muscle mass.

A short description of experiment [6]: Double-blind, placebo-controlled clinical study: strength (isotonic bench and leg press). In kind it is in vivo, human. The conditions noted are these: volunteers, 500 mg, 2 month study, weight lifted. The protocol:
as §3
Since this product was used to increase muscle mass, the effect of the test compound on the strength of the volunteers was evaluated. This was done by conducting isotonic repetitions of bench and leg press exercises. An increase in strength was determined based on an increase in weight lifted during these two exercises.

Take `C[C@]12CC[C@H]3[C@@H](CCC4=CC(=O)CC[C@@]43C)[C@@H]1CC[C@@H]2O` [testosterone, reference compound]: in experiment [1] (four weeks, 10 mg s.c biweekly), the “body weight compared with control group” value is on record as “significant rise”.
For the compound `CCc1ccc(CCOc2ccc(CC3SC(=O)NC3=O)cc2)nc1` (centres unmarked) [Pioglitazone, reference compound], in experiment [2], the “Body weight, 0 day” value came to 165 ± 5.41 gm; the “% Change in Body weight” value is on record as 25% INCREASE; the “Body weight, 15 day” value was determined as 198.5 ± 6.45 gm; the “Body weight, 30 day” value was 207.83 ± 4.49 gm. Further, in experiment [3], the “Blood sugar level, 0 day” value amounted to 438.66 ± 6.37 mg/dL; the “Change in BSL (%)” value is recorded as 35.8% DECREASE; the “Blood sugar level, 15 day” value is 376.33 ± 7.29 mg/dL; the “Blood sugar level, 30 day” value is 281 ± 5.92 mg/dL.
As for Insulin [reference compound], the “stimulation of glucose uptake” value in the experiment with 3T3-L1 cells (100 nM insulin, 10 min) is reported as 1.74 fold.
Consider `OCC1O[C@H](OCC2O[C@@H](O[C@@H]3C(CO[C@H]4OC(CO)[C@H](O)C(O)C4O)O[C@@H](O)C(O)C3O)C(O)C(O)[C@@H]2O)C(O)C(O)[C@H]1O` (some centres unmarked) [test compound], for which, in experiment [2], the “Body weight, 0 day” value is 185.16 gm; the “% Change in Body weight” value turned out to be 29%; the “Body weight, 15 day” value was found to be 215.83 ± 6.05 gm; the “Body weight, 30 day” value is 240.83 gm. Moreover, in experiment [2] (listed as Test Compound), the “Body weight, 0 day” value is listed as 185.16 ± 6.53 gm; the “% Change in Body weight” value is 29% INCREASE; the “Body weight, 30 day” value is recorded as 240.83 ± 6.42 gm. Further, the “reduction of body fat” value in experiment [4] is on record as 12%. Moreover, the “total serum testosterone levels” value in the experiment on serum testosterone is “no significant increase”. Besides, in the experiment on 3T3-L1 cells (dose of 5 μg/ml, 10 or 30 min), the glucose uptake result is “enhanced glucose uptake”. For the same compound, the “muscle mass (levitor ani muscles)” value in experiment [5] is reported as “significant increase”. In addition, the “weight of the levator ani muscles (anabolic activity)” value in experiment [1] (4 weeks of treatment) is recorded as “significant increase”. Besides, the “weights of organs of the male reproductive system (prostate, seminal vesicle and penis); androgenic activity” value in experiment [1] (4 weeks, 10 and 35 mg/kg) was “did not increase”. Moreover, the “change in body weight” value in experiment [1] (four-week treatment, 10 mg/kg p.o) is recorded as “did not cause any change”. For the same compound, in experiment [1] (four-week treatment, 35 mg/kg p.o), the “body weight compared with control group” value is “significant rise”. In addition, in experiment [6], the “increase in strength compared to placebo, bench press” value came to 100% and the “increase in strength compared to placebo, leg press” value worked out at 80%. Further, in experiment [3], the “Blood sugar level, 0 day” value was determined as 416.5 ± 14.42 mg/dL; the “Change in BSL (%)” value was 55%; the “Blood sugar level, 15 day” value was 294.5 ± 12.22 mg/dL; the “Blood sugar level, 30 day” value is 187 ± 9.33 mg/dL. The “Change in BSL (%)” value in experiment [3] (listed as Test Compound) came out at 55% DECREASE.
